Literature values, collected in patent US20220071932A1, “Compositions and Methods Against Stress-Induced Affective Disorders and Their Associated Symptoms” (The Trustees of Columbia University in the City of New York, priority 2019, published 2022).

Tested on: depressive symptoms in patients
Details: patients diagnosed with MDD; cited from earlier work

## CC12CC3CC(C)(C1)CC(N)(C3)C2 [memantine]
  reduction of depressive symptoms: does not reduce depressive symptoms
